Laboratory results published in patent publication US7638036B2, “Redox potential mediated carbon nanotubes biosensing in homogeneous format” (E. I. du Pont de Nemours and Company, priority 2004, dated 2009).
pKd: −log10 of the molar value. Counter-ions that a name gives are not always drawn. Like-named read-outs stand apart in the source and are kept apart here.

What was measured:
[1] = test system: Trametes versicolor laccase; assay: Laccase inhibitor evaluation: rate of ABTS^−2 oxidation at varied inhibitor and substrate concentrations (1/V versus [I] plots); assay type: biochemical
Description: High potential quinones/quinols were screened to identify those with characteristics that would be suitable for use as an inhibitor of laccase, to be used in an activity switch.
Compounds were evaluated by varying the concentrations of inhibitor and substrate (ABTS^−2) and measuring under each condition the rate of ABTS^−2 oxidation. […] Tetrachloro-o-quinol and tetrafluoro-o-quinol, shown in Diagram I, had Kds, of 7-9 μM and 2.5 μM, respectively, as determined from the data in FIG. 12.
After the addition of sodium cyanoborohydride (6 mg, 100 nmol), the reaction mixture was stirred for an additional 2 hours, washed with water (2×0.5 mL) and dried on a rotavap.

[2] = test system: Trametes versicolor laccase; assay: Laccase assay: ABTS^−2 oxidation followed by absorbance change at 436 nm, with and without NaF; assay type: biochemical; details: 1 mM NaF; 5 mM ABTS^−2 in 50 mM Glycine pH 3.0
[3] = test system: laccase Type I copper center; assay: Laccase 600 nm absorbance peak on inhibitor binding; set-up: species or system Trametes versicolor; details: charge-transfer band of Type I copper center
Excerpt: This conclusion was strengthened by the observation that the binding of tetrachloro-o-quinol to laccase caused a decrease in the amplitude of the laccase 600 nm absorbance peak, dominated by a charge-transfer band involving the Type I copper center and its cysteinyl ligand.

[4] = inhibitor of laccase, substrate ABTS^−2, read-out: Kd (dissociation constant of the inhibitor, −Ki at intersection point)

| SMILES | pKd [1, 4] | activity as laccase inhibitor ([1]; substrate ABTS^−2) | further results |
| --- | --- | --- | --- |
| CCn1c(=NN=c2sc3cc(S(=O)(=O)O)ccc3n2CC)sc2cc(S(=O)(=O)O)ccc21 [ABTS^−2, 2,2′-azino-bis(3-ethylbenz-thiazoline-6-sulfonate) diammonium salt, reference compound] |  |  | pKd ([1]; substrate binding to laccase, read-out: dissociation constant, Kd of the laccase substrate): 3.62 to 3.92 |
| [F-].[Na+] [NaF] |  |  | inhibition of laccase activity [2]: 95% |
| Oc1c(O)c(Cl)c(Cl)c(Cl)c1Cl [Tetrachloro-o-quinol] | 5.05 to 5.15 | effective inhibitor | amplitude of the laccase 600 nm absorbance peak on binding [3]: decrease |
| Oc1c(Cl)c(Cl)c(O)c(Cl)c1Cl [tetrachloro-p-quinol, reference compound] |  | inactive as an inhibitor |  |
| Oc1c(O)c(F)c(F)c(F)c1F [tetrafluoro-o-quinol] | 5.60 |  |  |
